# Earlier results in patent publication US20100323044A1, “ABNORMAL PROTEIN REMOVING METHOD” (FANCL CORPORATION, priority 2004, published 2010).
# Conditions: assumed, J Nutr 134 (2004); broken down by intestinal bacteria into soyasapogenol B, then absorbed
smiles,measurement,value
C[C@@H]1O[C@@H](O[C@H]2[C@H](O[C@H]3[C@H](O[C@H]4CC[C@@]5(C)[C@@H](CC[C@]6(C)[C@@H]5CC=C5[C@@H]7CC(C)(C)C[C@@H](O)[C@]7(C)CC[C@]56C)[C@@]4(C)CO)O[C@H](C(=O)O)[C@@H](O)[C@@H]3O)O[C@H](CO)[C@H](O)[C@@H]2O)[C@H](O)[C@H](O)[C@H]1O [soyasaponin I],absorption in the human intestines,not absorbed directly
